Activity data for 1 compound are collected here from ChEMBL document CHEMBL1147341, “Unprecedented oxylipins from the marine green alga Acrosiphonia coalita” (J Nat Prod, 1993).

Calls of active or inactive are those of the source. The calls are words filed in the database; no cut-off is given here.

This assay concerns Candida albicans. The experiment in a line: Antifungal activity against Candida albicans at 100 ug/disk by sensitive disk method. In kind it is functional, organism-based.

In the case of `CC[C@H](O)/C=C/C=C/C=C/C=O`, the outcome was Active.
